{
  "source": "ChEMBL document CHEMBL5727777",
  "about": "“Piperidin-4-yl azetidine derivatives as JAK1 inhibitors” (2020)",
  "target": "Tyrosine-protein kinase JAK1 (Homo sapiens, UniProt P23458)",
  "sequence (P23458 whole entry, the tested form may be a part)": "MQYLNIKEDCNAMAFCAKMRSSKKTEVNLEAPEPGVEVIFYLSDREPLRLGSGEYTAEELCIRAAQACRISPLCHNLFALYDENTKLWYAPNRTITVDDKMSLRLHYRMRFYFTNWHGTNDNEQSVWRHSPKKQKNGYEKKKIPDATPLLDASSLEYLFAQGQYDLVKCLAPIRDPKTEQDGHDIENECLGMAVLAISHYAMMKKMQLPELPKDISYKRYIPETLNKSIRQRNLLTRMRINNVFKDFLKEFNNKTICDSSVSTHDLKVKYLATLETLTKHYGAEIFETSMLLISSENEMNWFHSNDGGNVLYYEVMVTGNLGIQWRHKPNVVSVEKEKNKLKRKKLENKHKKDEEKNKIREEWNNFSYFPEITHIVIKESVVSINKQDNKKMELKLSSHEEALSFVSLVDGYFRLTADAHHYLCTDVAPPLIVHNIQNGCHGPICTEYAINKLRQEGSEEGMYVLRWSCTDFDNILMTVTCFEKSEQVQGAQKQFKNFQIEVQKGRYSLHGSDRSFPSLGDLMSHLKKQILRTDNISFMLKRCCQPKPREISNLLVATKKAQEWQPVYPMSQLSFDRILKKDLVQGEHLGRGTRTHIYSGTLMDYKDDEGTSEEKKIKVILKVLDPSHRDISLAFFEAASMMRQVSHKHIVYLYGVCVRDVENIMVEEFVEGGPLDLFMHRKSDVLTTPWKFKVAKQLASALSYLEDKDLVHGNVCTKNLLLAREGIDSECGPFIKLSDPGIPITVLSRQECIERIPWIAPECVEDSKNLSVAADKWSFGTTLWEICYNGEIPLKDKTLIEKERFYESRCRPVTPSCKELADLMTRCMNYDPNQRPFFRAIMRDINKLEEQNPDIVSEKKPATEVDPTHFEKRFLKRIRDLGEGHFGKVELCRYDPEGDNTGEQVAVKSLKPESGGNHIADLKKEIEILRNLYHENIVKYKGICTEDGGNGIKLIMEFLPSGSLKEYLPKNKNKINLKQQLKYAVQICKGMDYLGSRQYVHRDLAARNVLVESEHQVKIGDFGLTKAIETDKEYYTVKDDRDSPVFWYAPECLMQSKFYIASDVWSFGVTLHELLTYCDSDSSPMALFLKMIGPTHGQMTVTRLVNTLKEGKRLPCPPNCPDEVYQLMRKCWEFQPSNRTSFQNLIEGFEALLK",
  "experiment": "In vitro JAK Kinase Assay: The catalytic domains of human JAK1 (a.a. 837-1142), Jak2 (a.a. 828-1132) and Jak3 (a.a. 781-1124) with an N-terminal His tag were expressed using baculovirus in insect cells and purified. The catalytic activity of JAK1, JAK2 or JAK3 was assayed by measuring the phosphorylation of a biotinylated peptide. The phosphorylated peptide was detected by homogenous time resolved fluorescence (HTRF). […] Reactions were carried out at room temperature for 1 hr and then stopped with 20 μL 45 mM EDTA, 300 nM SA-APC, 6 nM Eu-Py20 in assay buffer (Perkin Elmer, Boston, Mass.). Binding to the Europium labeled antibody took place for 40 minutes and HTRF signal was measured on a Fusion plate reader (Perkin Elmer, Boston, Mass.)",
  "data": [
    {"molecule": "N#CCC1(n2cc(-c3ncnc4[nH]ccc34)cn2)CN(C2CCN(C(=O)OCC3CCCCC3)CC2)C1", "values": [
      {"measurement": "IC50", "value": "< 5", "unit": "nM"}
    ]}
  ]
}
